Experimental data from publication PMC3445516 (PLoS ONE, 2012).

What was measured:
p38α = p38α (Homo sapiens, UniProt Q16539); details: 10 and 100 nM
Method: Phosphorylation of 3.5 µg of p38 substrate was detected in a reaction having 1 µCi [γ-^32P] ATP (Perkin Elmer Life Sciences), 50 µM ATP, 50 ng active recombinant p38 in 50 µL kinase buffer containing 25 mM Tris-HCl, pH 7.5, 10 mM MgCl2, 5 mM β-glycerophosphate, 0.1 mM Na3VO4 and 2 mM DTT. The reaction was incubated at 30°C for 10 minutes and 25 µL of the reaction was spotted on Whatman P81 filter paper. The filter paper was washed 3 times in 0.5% phosphoric acid, air dried and counted using Beckman LS6500 multipurpose scintillation counter. Percent p38 inhibition was graphed using GraphPad Prism software 5.0.

[1] = target: T1, recombinant GST-tagged human protein kinase D1 (PKD1) (Homo sapiens, UniProt Q15139); experiment: In vitro radiometric PKD1 kinase assay; type: biochemical
T1 construct: purchased Enzo Life sciences (Farmingdale, NY)
T1 sequence (Q15139 1-912): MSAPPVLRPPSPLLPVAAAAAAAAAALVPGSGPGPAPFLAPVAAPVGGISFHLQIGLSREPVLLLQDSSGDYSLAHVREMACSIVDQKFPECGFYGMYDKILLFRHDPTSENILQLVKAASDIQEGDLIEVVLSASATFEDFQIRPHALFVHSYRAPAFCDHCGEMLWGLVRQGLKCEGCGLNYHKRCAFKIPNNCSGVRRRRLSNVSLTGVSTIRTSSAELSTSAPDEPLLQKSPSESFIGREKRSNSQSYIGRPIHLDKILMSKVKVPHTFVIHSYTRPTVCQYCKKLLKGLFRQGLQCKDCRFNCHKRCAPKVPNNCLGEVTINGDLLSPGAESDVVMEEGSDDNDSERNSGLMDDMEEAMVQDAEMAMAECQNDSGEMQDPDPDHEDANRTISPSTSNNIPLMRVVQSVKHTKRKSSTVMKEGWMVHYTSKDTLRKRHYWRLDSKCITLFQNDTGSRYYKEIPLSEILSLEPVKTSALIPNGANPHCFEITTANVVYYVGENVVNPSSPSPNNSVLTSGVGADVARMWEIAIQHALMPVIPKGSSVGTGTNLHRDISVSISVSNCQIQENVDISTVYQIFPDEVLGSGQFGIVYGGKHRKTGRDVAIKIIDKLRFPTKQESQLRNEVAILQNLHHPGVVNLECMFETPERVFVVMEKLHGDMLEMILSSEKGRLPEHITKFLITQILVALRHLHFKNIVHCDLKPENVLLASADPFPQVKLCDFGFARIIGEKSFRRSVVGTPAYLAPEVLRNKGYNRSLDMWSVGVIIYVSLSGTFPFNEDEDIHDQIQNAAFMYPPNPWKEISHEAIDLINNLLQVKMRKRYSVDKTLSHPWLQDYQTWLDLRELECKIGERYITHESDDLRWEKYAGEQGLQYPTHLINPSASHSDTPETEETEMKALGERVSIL
Method: All compounds were given distinct UPCMLD (University of Pittsburgh Center for Chemical Methodologies and Library Development) IDs and were then assigned numerical IDs for convenient data display. Evaluation of each compound was carried out in triplicate at a single concentration (1 µM). Our previously described PKD1 inhibitor, kb-NB142-70, and DMSO (solvent alone) were used as positive and negative controls, respectively. Percent residual kinase activity was calculated based on that of the negative control (DMSO).
Kinase active recombinant GST-tagged human protein kinase D1 (PKD1) was obtained from Enzo Life sciences (Farmingdale, NY). DMSO was purchased from Sigma. Recombinant PKCα, PKCδ and CAMKIIα were obtained from SignalChem (Richmond, BC, Canada). ATP was purchased from Fisher Scientific. HDAC5 substrate peptide was synthesized by Biobasic Canada Inc. (Markham, ON). Myelin basic protein 4–14 was purchased from AnaSpec Inc. (Fremont, CA). The targeted kinase inhibitor library was obtained from Hoffmann-La Roche, Inc.
1.2 µg of HDAC-5 was used as substrate in the reaction. Phosphorylation of HDAC5 was detected in a kinase reaction having 1 µCi [γ-^32P] […] The reaction was incubated at 30° for 10 minutes and 25 µL of the reaction was spotted on Whatman P81 filter paper. The filter paper was washed 3 times in 0.5% phosphoric acid, air dried and counted using Beckman LS6500 multipurpose scintillation counter. Percent PKD1 inhibition was graphed using GraphPad Prism software 5.0.

PKD1 = target: T2, PKD1 (Homo sapiens, UniProt Q15139); experiment: Kinetic analysis, Lineweaver-Burk plots (ATP competition); type: biochemical
T2 construct: purchased Enzo Life sciences (Farmingdale, NY)
Method: (§1) PMA induces PKC-dependent phosphorylation of Ser744/748 (S^744/748) in the activation loop followed by autophosphorylation of PKD1 on Ser916 (S^916) in the C-terminus, [31]. The catalytic activity of PKD1 correlates well with the level of phosphorylation at S^916 [31].
(§2) Figure 5 In vitro IC50, cellular activity, and mode of action of representative compounds. […] IC50 values were calculated based on the dose-response curve. Data are represented as mean ± SEM of 3 independent experiments. […] Cell lysates were subjected to immunoblotting for pS^916-PKD1 and pS^744/748-PKD1. Tubulin was blotted as loading control. The experiments were repeated three times and representative blots are shown. C.

[2] = target: T3, endogenous PKD1 in LNCaP prostate cancer cells (Homo sapiens, UniProt Q15139); experiment: PMA-induced activation of PKD1 in LNCaP cells (immunoblot pS916 / pS744/748); type: cell-based; details: PMA 10 nM
T3 construct: endogenous in cells; host or cells: LNCaP prostate cancer cells
T3 sequence (Q15139 1-912): T1 sequence (Q15139 1-912)
Method: as §1, §2

[3] = system: LPS-stimulated TNFα synthesis; parameters: method as in PMID 14561090; details: acute rat model of LPS-stimulated TNFα synthesis; cited from earlier work
PKCδ = PKCδ (Homo sapiens, UniProt Q05655); experiment: In vitro radiometric PKC kinase assay; type: biochemical; parameters: purchased SignalChem (Richmond, BC, Canada); details: 0.1, 1 and 10 µM; positive control
Method: (§3) In this study, we counter-screened the twenty-eight PKD1 inhibitory agents for inhibition of PKCα, PKCδ and CAMKIIα in order to get an initial profile for the potential PKD selectivity, since these are the functionally most closely related kinases. The compounds were examined at 0.1, 1 and 10 µM concentration. […] Next, the inhibitory activity for CAMKIIα was examined.
(§4) The PKC kinase assay was carried out by co-incubating 1 µCi [γ-^32P]ATP, 20 µM ATP, 50 ng of purified PKCα or PKCδ and 5 µg of myelin basic protein 4–14, 0.25 mg/mL bovine serum albumin, 0.1 mg/mL phosphatidylcholine/phosphatidylserine (80/20%) (1 µM), 1 µM phorbol dibutyrate in 50 µL of kinase buffer containing 50 mM Tris-HCl, pH 7.5, 4 mM MgCl2 and 10 mM β-mercaptoethanol. For the CAMK assay, 50 ng of CAMK and 2 µg Syntide-2 substrate in 50 µL kinase buffer were incubated with 0.1 mM MgCl2, 1 µCi of [γ-^32P] ATP, 70 µM ATP. 0.5 mM CaCl2 and 30 ng/µL calmodulin were preincubated for 15 min on ice and then added in the kinase reaction. The reactions were incubated at 30°C for 10 minutes and 25 µL of the reaction was spotted on Whatman P81 filter paper. The filter paper was washed 3 times in 0.5% phosphoric acid, air dried and counted using Beckman LS6500 multipurpose scintillation counter.

PKCα = target: T4, PKCα (Homo sapiens, UniProt P17252); experiment: In vitro radiometric PKC kinase assay; type: biochemical; details: 0.1, 1 and 10 µM; positive control
T4 construct: purchased SignalChem (Richmond, BC, Canada)
Method: as §3, §4

Chain of p38α (Q16539 whole entry): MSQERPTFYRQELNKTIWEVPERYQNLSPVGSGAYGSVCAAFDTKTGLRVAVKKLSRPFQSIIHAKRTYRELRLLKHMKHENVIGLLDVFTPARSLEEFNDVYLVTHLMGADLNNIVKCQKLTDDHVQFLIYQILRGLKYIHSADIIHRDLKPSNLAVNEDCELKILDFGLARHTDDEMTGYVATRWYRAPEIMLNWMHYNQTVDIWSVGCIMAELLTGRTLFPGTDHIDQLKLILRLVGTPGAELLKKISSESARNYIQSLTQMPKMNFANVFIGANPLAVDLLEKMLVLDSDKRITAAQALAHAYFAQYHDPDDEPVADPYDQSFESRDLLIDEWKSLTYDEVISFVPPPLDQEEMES
Chain of PKCδ (Q05655 whole entry): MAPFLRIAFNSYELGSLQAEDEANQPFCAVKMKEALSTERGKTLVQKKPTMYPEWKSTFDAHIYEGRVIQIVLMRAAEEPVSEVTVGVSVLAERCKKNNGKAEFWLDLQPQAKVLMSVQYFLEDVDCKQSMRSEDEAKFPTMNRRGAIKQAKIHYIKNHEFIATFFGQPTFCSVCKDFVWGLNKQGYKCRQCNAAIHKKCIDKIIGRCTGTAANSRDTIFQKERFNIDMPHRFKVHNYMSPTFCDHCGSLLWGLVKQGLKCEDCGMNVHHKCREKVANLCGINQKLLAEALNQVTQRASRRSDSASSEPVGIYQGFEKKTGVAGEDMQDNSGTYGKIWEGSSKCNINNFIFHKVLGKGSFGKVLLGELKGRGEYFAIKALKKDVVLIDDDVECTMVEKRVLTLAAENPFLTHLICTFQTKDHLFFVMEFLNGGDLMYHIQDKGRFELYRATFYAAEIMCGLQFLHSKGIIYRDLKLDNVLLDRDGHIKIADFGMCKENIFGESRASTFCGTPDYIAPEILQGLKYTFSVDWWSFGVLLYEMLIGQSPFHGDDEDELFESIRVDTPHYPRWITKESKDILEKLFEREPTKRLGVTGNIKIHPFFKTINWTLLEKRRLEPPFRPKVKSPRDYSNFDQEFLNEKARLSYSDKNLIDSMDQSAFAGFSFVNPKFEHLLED

SMILES	inhibition of p38α (p38α)	IC50 ([1]; dose-response, mean ± SEM of 3 independent experiments) [nM]	inhibition at 1 µM ([1]; read-out: Inhibition of PKD1) [%]	mode of inhibition with respect to ATP (PKD1)	effect on PKC-induced transphosphorylation at S744/748 [2]	IC50 ([2]; densitometry of pS916-PKD1 levels, read-out: cellular IC50 for inhibition of PKD1) [nM]	in vivo efficacy [3]	inhibition of PKCδ (PKCδ)	inhibition of PKCα (PKCα)
CC(CO)Nc1cc(-c2[nH]c3cccnc3c2-c2ccc(F)cc2)ccn1 (stereo not drawn) [Compound 139]	most potent	16.8	94	competitive with respect to ATP	did not affect	1500	in vivo efficacy has been demonstrated	–	–
CN(C)CCCn1cc(C2=C(c3c[nH]c4ccccc34)C(=O)NC2=O)c2ccccc21 [GF109203X, reference compound]	–	–	–	–	–	–	–	strongly inhibited	strongly inhibited
